Experimental data: patent US6331642A, “Vitamin D3 analogs” (Hoffmann-La Roche Inc., priority 2000, dated 2001)
Where two headings read alike, the source gives them in different places.

Experiments:
[1] = Serum calcium levels in ovariectomized rats; format: in vivo, adult female rats; conditions: ovx rats, Ovx/Veh. 10.41
Experimental: Three month old adult female rats were subjected to bilateral ovariectomy or sham surgery. […] Dose volume was calculated weekly using the group average body weight. Dosing started 17 days post surgery and continued for 19 days. On the 20th day animals were euthanized by carbon dioxide inhalation and left femurs excised.
Blood (1.5 ml) was collected from each animal by orbital puncture under ether anesthesia on day 7 and day 18 of dosing. Blood was collected into serum separator tubes, centrifuged at 2000 rpm for 15 min. and then serum aliquoted for calcium determinations. Serum calcium was determined by colorimetric assay.
For a verification of the effect of ovariectomy on bone calcium, the sham and ovx vehicle groups were compared using student's t-test. The ovx groups were compared by one-way analysis of variance (ANOVA), followed by Fisher's LSD to compare each treatment group to vehicle when the overall effect was statistically significant.

p21^waf1 = test: Western blot analysis, p21^waf1 in MCF-7 cells; format: cell-based; conditions: Homo sapiens, read-out: increase in expression of p21^waf1
Experimental: (§1) Western Blot Analysis. Cells were washed twice with PBS, suspended in Lysis buffer (50 mM Tris Ph 8.0, 150 mM NaCl, 0.1% SDS, 0.5% sodium deoxycholate, 1% NP40, 100 μg/ml phenylmethylsulfonyl fluoride, 2 μg/ml aprotinin, 1 μg/ml pepstatin and 10 μg/ml leupeptin), and placed on ice for 30 minutes. After centrifugation at 15,000 g for 20 minutes at 4° C., the supernatant was collected. Protein concentrations were quantitated. Whole lysates (15 μg) were resolved by 15% sodium dodecyl sulphate polyacrylamide gel, were transferred to an immobilon polyvinylidene difuride membrane and were probed with anti-p27^kip1 rabbit polyclonal antibody and anti-Actin murine monoclonal antibody. Blots were developed.
(§2) Western Blot Analysis. The cyclin dependent kinase inhibitors known as p21^waf1 and p27^kip1 are able to inhibit the activity of cyclin kinase and thus slow the progression for the cells through the cell cycle. […] Exposure for one day to 1,25(OH)2 -16-ene-5,6-trans-D3 (10^-7 M) increased expression of p21^waf1 and p27^kip1 by about 3.2-3.5 fold, whereas culture with 1,25(OH)2 D3 (10^-7 M) increased expression of p21^waf1 and p27^kip1 about 1.6-1.8 fold. […] 1,25(OH)2 D3 (10^-7 M, 3 days) increased expression of p21^waf1 and p27^kip1 by 4.8 fold and 3.3 fold, respectively.

left femur (distal half) = test: Total femoral bone calcium in ovariectomized rats; format: in vivo, adult female rats; conditions: ovx rats, 19 days, text: calcium in mg/distal half femur, Ovx/Veh. 10.58
Experimental: Three month old adult female rats were subjected to bilateral ovariectomy or sham surgery. After a week of acclimatization the animals were weight grouped and treated by oral gavage at 1 mg/kg of specified concentration. Dose volume was calculated weekly using the group average body weight. Dosing started 17 days post surgery and continued for 19 days. On the 20th day animals were euthanized by carbon dioxide inhalation and left femurs excised.
At necropsy the left femurs from all groups were excised and soft tissue removed. The bones were measured and cut in half at mid-diaphysis; then the distal portion was cut in half longitudinally after removal of the epiphysis. The bone marrow was flushed out and the calcium was extracted by immersion in 5% TCA. The calcium content of TCA extracts was determined by using quantitative, colorimetric determination of calcium. The data were expressed as mean total bone calcium in mg/distal half femur (DHF)±serum.

p27^kip1 [2] = test: Western blot analysis, p27^kip1 in HL-60 cells; format: cell-based
Experimental: Western Blot Analysis. Cells were washed twice with PBS, suspended in Lysis buffer (50 mM Tris Ph 8.0, 150 mM NaCl, 0.1% SDS, 0.5% sodium deoxycholate, 1% NP40, 100 μg/ml phenylmethylsulfonyl fluoride, 2 μg/ml aprotinin, 1 μg/ml pepstatin and 10 μg/ml leupeptin), and placed on ice for 30 minutes. After centrifugation at 15,000 g for 20 minutes at 4° C., the supernatant was collected. Protein concentrations were quantitated. […] Blots were developed.
The dose-dependent effect of the vitamin D3 compounds on expression of p27^kip1 HL-60 cells was examined.

MCF-7 cells [3] = test: Cell cycle analysis by flow cytometry; format: cell-based; conditions: 10^-7 M, 4 days
Experimental: Cell Cycle Analysis by Flow Cytometry. Cell cycle analysis was performed on MCF-7 cells incubated for 4 days with either 1,25(OH)2 D3 or 1,25(OH)2 -16-ene-5,6-trans-D3 at 10^-7 M. The cells were fixed in chilled methanol overnight before staining with 50 μg/ml propidium iodide, 1 mg/ml Rnase (100 units/ml) and 0.1% NP40. Analysis was performed immediately after staining. All experiments were done at least three times independently. All data were statistically analyzed by Student's test.
Cell cycle Analysis. Effect of 1,25(OH)2 -16-ene-5,6-trans-D3 and 1,25(OH)2 D3 (10^-7, 4 days) on the cell cycle of the MCF-7 cells was determined.

[4] = Serum calcium levels in vivo, mice; design: species or system male Balb/c mice; conditions: for survival: 3 weeks of study
Experimental: Serum Calcium Levels in vivo. Twenty-eight male Balb/c mice at 8 to 9 weeks of age were maintained in pathogen-free conditions and fed a standard laboratory diet. Four mice per group were injected intraperitoneally every other day (except Saturday and Sunday) with either vitamin D3 compound or diluant (100 μl/mouse) for 3 weeks. Doses of 1,25(OH)2-16-ene-5,6-trans-D3 were: 0.1, 0.5, 1.0, and 2.0 μg. Doses of 1,25(OH)2 D3 were 0.1 μg/mouse. Control mice were injected with 100 μl of PBS. Serum calcium values were measured every week by the quantitative, colorimetric detection assay.
Serum Calcium Levels in vivo. Because hypercalcemia is a major toxicity of vitamin D3 compounds, the calcemic effects of 1,25(OH)2 D3 were compared with 1,25(OH)2 -16-ene-5,6-trans-D3.

MCF-7 cells [5] = test: Pulse-exposure experiments, soft agar colony assay; format: cell-based; conditions: 4 days of exposure, 10^-7, colonies counted day 14
Experimental: Pulse-Exposure Experiments. The MCF-7 cells were incubated in liquid culture with 10^-7 of 1,25(OH)2 D3 or 1,25(OH)2 -16-ene-5,6-trans-D3 for various duration. After incubation, these cells were carefully washed twice with PBS and viable cells were counted and plated into 24-well plates for soft agar colony assay, as previously described.
Pulse-Exposure Experiments. […] The MCF-7 cells were exposed to either 1,25(OH)2 -16-ene-5,6-trans-D3 or 1,25(OH)2 D3 for various durations, washed thoroughly, plated in soft agar, and colony numbers were enumerated on day 14 of culture.

p27^kip1 [6] = test: Western blot analysis, p27^kip1 in MCF-7 cells; format: cell-based; conditions: Homo sapiens, read-out: increase in expression of p27^kip1
Experimental: as §1, §2

Q: Which “Serum Calcium” value ([1]; dose printed 0500 μg/kg oral) does the source give for `C=C1/C(=C\C=C2/CCC[C@]3(C)[C@@H]([C@H](C)CCCC(C)(C)O)CC[C@@H]23)C[C@@H](O)C[C@@H]1O` [1,25(OH)2 D3, reference compound] here?
A: 11.74 mg/dL

Q: And the fold induction at 0.1 µM (p21^waf1; MCF7, 24 h)?
A: 1.6 to 1.8

Q: And the fold induction at 0.1 µM (p21^waf1; MCF7, 72 h)?
A: 4.8

Q: What about the “Femur CA/100 g BW” value (left femur (distal half); 0.500 μg/kg oral) of the same compound?
A: 11.91 /100 g BW

Q: What about the “expression of p27^kip1” value (p27^kip1 [2]) of the same compound?
A: up-regulated

Q: And the “levels of p27^kip1” value (p27^kip1 [2]; 10^-8-10^-7 M)?
A: increased prominently

Q: And the “number of cells in the G0-G1 phase” value (MCF-7 cells [3])?
A: significant increase (P≤0.05)

Q: And the “proportion of cells in S phase” value (MCF-7 cells [3])?
A: concomitant decrease

Q: What about the hypercalcemia ([4]; 0.1 μg/mouse i.p. every other day, 3 weeks) of the same compound?
A: all hypercalcemic

Q: What about the serum calcium level ([4]; 0.1 μg/mouse i.p. every other day, 3 weeks, normal 8.5-10.5 mg/dl) of the same compound?
A: approximately 12 mg/dl

Q: What about the survival [4] of the same compound?
A: All mice survived

Q: And the clonogenic cells inhibited (MCF-7 cells [5])?
A: thirty

Q: And the fold induction at 0.1 µM (p27^kip1 [6]; MCF7, 24 h)?
A: 1.6 to 1.8

Q: What about the fold induction at 0.1 µM (p27^kip1 [6]; MCF7, 72 h) of the same compound?
A: 3.3

Q: With `C=C1/C(=C/C=C2\CCC[C@]3(C)C([C@H](C)CCCC(C)(C)O)=CC[C@@H]23)C[C@@H](O)C[C@@H]1O` [1,25(OH)2-16-ene-5,6-trans-D3, 1,25-Dihydroxy-16-ene-5,6-trans-cholecalciferol] as the compound, how does the “Serum Calcium” value ([1]; 2.000 μg/kg oral) read?
A: 9.98 mg/dL

Q: What about the fold induction at 0.1 µM (p21^waf1; MCF7, 24 h) of the same compound?
A: 3.2 to 3.5

Q: And the fold induction at 0.1 µM (p21^waf1; MCF7, 72 h)?
A: 2.8

Q: And the “Femur CA/100 g BW” value (left femur (distal half); 2.000 μg/kg oral)?
A: 11.49 /100 g BW

Q: What about the “expression of p27^kip1” value (p27^kip1 [2]) of the same compound?
A: up-regulated

Q: What about the “expression of p27^kip1” value (p27^kip1 [2]; 4 days, 10^-9 M) of the same compound?
A: markedly increased

Q: What about the “number of cells in the G0-G1 phase” value (MCF-7 cells [3]) of the same compound?
A: significant increase (P≤0.05)

Q: And the “proportion of cells in S phase” value (MCF-7 cells [3])?
A: concomitant decrease

Q: And the serum calcium level ([4]; 0.1-2.0 μg/mouse i.p. every other day, 3 weeks, control mice 8-9 mg/dl)?
A: 8 to 10 mg/dL

Q: And the “serum calcium level compared with control mice” value ([4]; 0.1-2.0 μg/mouse i.p., 3 weeks)?
A: almost the same calcium level

Q: And the survival [4]?
A: All mice survived

Q: And the clonogenic cells inhibited (MCF-7 cells [5])?
A: Approximately forty

Q: And the fold induction at 0.1 µM (p27^kip1 [6]; MCF7, 24 h)?
A: 3.2 to 3.5

Q: What about the fold induction at 0.1 µM (p27^kip1 [6]; MCF7, 72 h) of the same compound?
A: 3.4
